Measured values reported in patent US11073508B2, “Rapid conductance based ion channel analysis” (Arizona Board of Regents on Behalf of the University of …, priority 2017, dated 2021).

Columns and labels:
Format in all cases: biochemical
[1] = tested on: Gramicidin A (gA) channels in DPhPC BLM; test: High speed solution exchange with gA-functionalized BLM, sub-ms conductance protocol (Example 2); conditions: recording buffer switched to recording buffer + 1 M Ca^2+, 0.9 ms protocol, 10 kHz filter
Text: Electrophysiological data was acquired with a HEKA EPC-10 Single patch clamp amplifier and digitized with Patchmaster software (v. 2.73). Single channel recordings were obtained at a −100 mV holding voltage, digitized at 20 kHz and filtered at 1 kHz, unless otherwise stated. Sub-millisecond conductance measurements were collected at 200 kHz and filtered at 10 kHz. Noise values were obtained from the Noise Panel present in Patchmaster software which measures instrument noise through the amplifier's 4-pole, low-pass Bessel filter.
Membrane conductance values were evaluated against a 21-point reference protocol that applied a 50 ms voltage pulses ranging from −100 to +100 mV, in 10 mV intervals. Each pulse was preceded by a 10 ms rest at a holding voltage of 0 mV and followed by a 1000 ms rest (0 mV) to ensure the bilayer capacitance was fully discharged before proceeding to the next voltage step. […]
Fast solution switching experiments were performed with a High Speed Solution Exchange-2/3 system (ALA Scientific, New York), A BLM pipette was positioned about 1 mm away and equidistant from the outflow of two tubes approximately perpendicular from one another. […] The solution composition perfusing across the BLM pipette was rapidly switched using a solenoid pinch valve and the membrane conductance was measured using the patch clamp amplifier. Membrane conductance was assessed as described above. […]

[2] = tested on: Gramicidin A (gA) channels in DPhPC BLM; test: Fast solution exchange with gA-functionalized BLMs, conductance protocol F (Example 1); conditions: gA-functionalized BLM on 3 μm aperture pipette; Ca^2+ switched from 0 to 1 M
Method: (§1) All electrophysiological measurements were performed using a HEKA Electronik EPC-10 Double patch clamp amplifier (Germany) using PatchMaster software (v2.73). Data were digitized at 20 kHz and filtered at 1 kHz, unless otherwise specified. BLM conductance was measured using several multi-step voltage protocols. All protocols were evaluated against a 21-point reference protocol that applied 50 ms potential pulses ranging from −100 to +100 mV, in 10 mV intervals. Each pulse was preceded by a 10 ms rest at a holding potential of 0 mV and followed by a 1000 ms rest to ensure the bilayer capacitance was fully discharged before proceeding to the next potential step. The slope of the i-V curve is the BLM conductance, GBLM (pA/mV), and the resistance, RBLM, is (GBLM)^−1.
A 1 mg/mL stock solution of gA in EtOH was prepared and stored at 4° C. for up to two weeks. […]
A dual-port perfusion apparatus was fabricated from a two-barrel theta capillary. […] The 10-90% response time of the solution exchange was determined by laterally translating the theta capillary tip to alternately deliver recording buffer and Ca^2+ solution to the pipette tip, which was positioned ˜200 μm from the outlet of the theta capillary tip, while monitoring the change in current through the pipette aperture at a holding potential of −20 mV. […]

[3] = Single channel recording of gA in DPhPC BLM
Method: as §1
A 1 mg/mL stock solution of gA in EtOH was prepared and stored at 4° C. for up to two weeks. For use, the solution was diluted to 1 μg/mL in EtOH and 0.5-1 μL aliquots were injected into the bath solution at a position ca. 5 mm from the pipette tip while monitoring current at a holding potential of −100 mV. […]
Gramicidin A dimerizes in lipid bilayers to form non-selective, cation-permeable ICs and is widely used as a model IC for illustrating BLM formation. […] The conductance of the BLM was measured using protocols A and E with recording buffer on both sides of the membrane. […]

Compound	decrease in membrane conductance upon application of 1 M Ca^2+ [1] [%]	decrease in normalized BLM conductance using the mean of a 1 s window before and after solution exchange [2] [%]	increase in membrane conductance by an individual gA ion channel ([3]; 1 M KCl solutions) [fA/mV]	current contributed by each gA channel ([3]; holding potential −100 mV, recording buffer 1 M KCl on both sides, DPhPC BLM, 3 μm aperture) [pA]
[Ca+2].[Cl-].[Cl-] [Ca^2+, CaCl2]	~60	81.9±13.5	–	–
Gramicidin A [gA]	–	–	~20	~2
